Measurements taken from patent US20020049173A1, “Alteration of cellular behavior by antisense modulation of mRNA processing” (priority 1999, published 2002).
In the oligonucleotide strings, read from the 5' end, every base follows the letter of its sugar. An asterisk marks phosphorothioate; unmarked linkages are phosphodiester. Other units and linkages are bracketed, terminal groups are in braces. A string of capitals states the bases alone. e = 2'-O-(2-methoxyethyl) (MOE); [5mC] = 5-methylcytosine

Assays:
[1] = tested on: murine IL-5 receptor α mRNA, membrane form; experiment: Membrane IL-5 receptor α mRNA by Northern blot in BCL1 cells; assay type: cell-based, mouse; conditions: for % control membrane IL-5 Rα / % inhib'n membrane IL-5 Rα: 24 hours, uniform 2′-MOE; for % INHIB'N MEMBRANE IL-5 RECEPTOR: 10 μM dose, exon-exon boundary oligonucleotides
Text: (§1) Murine BCL1 cells were chosen for screening antisense oligonucleotides targeted to murine IL-5 receptor α. These are B-cell leukemia cells derived from a spontaneously arising tumor of BALB/c origin, and proliferate in response to murine or human IL-5. This is a CD5+line which resembles a subset of human chronic lymphocytic leukemia tumors and secretes IgM upon lipopolysaccharide stimulation. Cells were obtained from the American Type Culture Collection and cultured in RPMI 1640 medium supplemented with 10% heat-inactivated fetal bovine serum (Sigma Chemical Co., St. Louis, Mo.), 10 mM Hepes, pH 7.2, 50 μM 2-ME, 2 mM L-glutamine, 100 U/ml penicillin and 100 μg/ml streptomycin (Gibco, Grand Island, N.Y.).
(§2) The effect of these compounds on both membrane and soluble forms of murine IL-5 receptor α were measured and are shown in Table 1B. Oligonucleotides were screened in BCL1 cells at a dose of 10 μM and IL-5 receptor α mRNA was measured by Northern blot. Percent inhibition is compared to untreated (no oligo) control.
(§3) Total BCL1 cellular RNA was isolated using the RNeasy™ kit (Qiagen, Santa Clara Calif.) . Northern blotting was performed using standard methods. The cDNA probes were generated from oligonucleotides matching the exon sequences of either exons 2, 8, 9 or 10. Signals were quantitated using a Molecular Dynamics PhosphorImager.

[2] = tested on: murine IL-5 receptor α mRNA, soluble form; experiment: Soluble IL-5 receptor α mRNA by Northern blot in BCL1 cells; assay type: cell-based, mouse; conditions: for % control soluble IL-5 Rα: 24 hours, uniform 2′-MOE; for % INHIB'N SOLUBLE IL-5 RECEPTOR: 10 μM dose, exon-exon boundary oligonucleotides
Text: as §1, §2, §3

human bcl-x mRNA [3] = experiment: Total bcl-x mRNA and bcl-xs/bcl-xl ratio in A549 cells, RNase protection; assay type: cell-based; conditions: for bcl-xs/bcl-xl: 200 nM oligonucleotide (Table 15)
Text: (§4) In accordance with the present invention, a series of oligonucleotides were designed to target different regions of human bcl-x RNA, using published sequences (Boise, L. H., et al., 1993, Cell 74, 597-608; Genbank Accession No. L20121, locus name “HSBCLXL,” incorporated herein as SEQ ID NO: 39). Antisense oligonucleotides were designed to target areas of exon 1 and exon 2 of human bcl-x, particularly around the exon 1/exon 2 splice site and in sequence regions present in bcl-xl but not in bcl-xs. All backbone linkages are phosphorothioates; All 2′MOE cytosines are 5-methylcytosines.
(§5) Oligonucleotides were evaluated for their respective effects on bcl-xs and bcl-xl3 mRNA levels in A549 cells along with total bcl-x mRNA levels, using the RIBOQUANT™ RNase protection kit (Pharmingen, San Diego Calif.). All assays were performed according to manufacturer's protocols.
(§6) A “walk” was done in this region with 20mer 2′-MOE phosphorothioate oligonucleotides targeted to sequences whose 5′ ends were 24, 26, 29, 31, 33, 37, 39, 41, 43, 44, 45 and 47 bases upstream of the splice site. These oligonucleotides were screened as before at a dose of 200 nM oligonucleotide for effect on short and long bcl-x transcripts.

human bcl-xl mRNA = experiment: bcl-xl mRNA in A549 cells, RIBOQUANT RNase protection; assay type: cell-based; conditions: 200 nM oligonucleotide (Table 15)
Text: as §4, §5, §6

human bcl-xs mRNA = experiment: bcl-xs mRNA in A549 cells, RIBOQUANT RNase protection; assay type: cell-based; conditions: 200 nM oligonucleotide (Table 15)
Text: as §4, §5, §6

human bcl-x mRNA [4] = experiment: Total bcl-x mRNA and bcl-xs/bcl-xl ratio in A549 cells, RNase protection; assay type: cell-based
[5] = BCL1 cells, 10 μM, Northern blot, compared to untreated control, 2′-MOE gapmers

Row | Substance | % control membrane IL-5 Rα ([1]; BCL1 cells, 10 μM) [%] | % inhib'n membrane IL-5 Rα ([1]; BCL1 cells, 10 μM) [%] | % control soluble IL-5 Rα ([2]; BCL1 cells, 10 μM) [%] | bcl-xs/bcl-xl (human bcl-x mRNA [3]; A549 cells) | % CONTROL bcl-xl (human bcl-xl mRNA) [%] | % CONTROL bcl-xs (human bcl-xs mRNA) [%] | other results
1 | 18008 (ACTCTGCAGATGAGTGAGAA; antisense; listed as DNA, chemistry not fully specified) [compound 18008] |  |  |  |  |  |  | % inhibition of membrane IL-5 Rα [1, 5]: 75%; % inhibition of soluble IL-5 Rα [2, 5]: 75%
2 | 21750 (eG*eA*e[5mC]*eT*eT*e[5mC]*e[5mC]*eT*eT*eT*e[5mC]*e[5mC]*eT*eT*eT*e[5mC]*e[5mC]*eT*eG*eG) [compound 21750] | 8 | 92 | 197 |  |  |  | 
3 | 21751 (e[5mC]*eA*eA*eG*eG*eA*e[5mC]*eT*eT*e[5mC]*e[5mC]*eT*eT*eT*e[5mC]*e[5mC]*eT*eT*eT*e[5mC]; splice-switching) [compound 21751] | 9 | 91 | 191 |  |  |  | 
4 | 21752 (eG*e[5mC]*e[5mC]*eA*eT*eT*e[5mC]*eT*eA*e[5mC]*e[5mC]*eA*eA*eG*eG*eA*e[5mC]*eT*eT*e[5mC]) [compound 21752] | 6 |  | 194 |  |  |  | 
5 | 21753 (eA*e[5mC]*eA*eA*eT*eG*eA*eG*eA*eT*eG*e[5mC]*e[5mC]*eA*eT*eT*e[5mC]*eT*eA*e[5mC]; splice-switching) [compound 21753] | 6 | 94 | 175 |  |  |  | 
6 | 21754 (eT*eG*eT*eT*eG*eG*eG*eA*eG*e[5mC]*eA*e[5mC]*eA*eA*eT*eG*eA*eG*eA*eT; splice-switching) [compound 21754] | 8 | 92 | 184 |  |  |  | 
7 | 21755 (eA*eG*e[5mC]*eA*eG*eG*e[5mC]*eA*eG*e[5mC]*eT*eG*eT*eT*eG*eG*eG*eA*eG*e[5mC]; splice-switching) [compound 21755] | 16 | 84 | 181 |  |  |  | 
8 | 21756 (eA*eA*e[5mC]*eA*eA*eG*eA*e[5mC]*eG*eA*eA*eG*e[5mC]*eA*eG*eG*e[5mC]*eA*eG*e[5mC]; splice-switching) [compound 21756] | 6 | 94 | 166 |  |  |  | 
9 | 21757 (eT*eG*eA*eG*eA*eA*eG*eA*eT*eT*eA*eA*e[5mC]*eA*eA*eG*eA*e[5mC]*eG*eA; splice-switching) [compound 21757] | 19 | 81 | 144 |  |  |  | 
10 | 21758 (eT*eG*e[5mC]*eA*eG*eA*eT*eG*eA*eG*eT*eG*eA*eG*eA*eA*eG*eA*eT*eT; splice-switching) [compound 21758] | 31 | 69 | 116 |  |  |  | 
11 | 21759 (eA*e[5mC]*eT*e[5mC]*eT*eG*e[5mC]*eA*eG*eA*eT*eG*eA*eG*eT*eG*eA*eG*eA*eA; splice-switching) [compound 21759] | 34 | 66 | 134 |  |  |  | 
12 | 21760 (e[5mC]*eT*eA*e[5mC]*eA*e[5mC]*eT*e[5mC]*eT*eG*e[5mC]*eA*eG*eA*eT*eG*eA*eG*eT*eG) [compound 21760] | 55 | 45 | 116 |  |  |  | 
13 | 21847 (eG*eT*eT*eT*eT*eT*e[5mC]*e[5mC]*eT*eT*e[5mC]*eT*eG*eA*eA*eT*eG*eT*eG*eA; antisense) [compound 21847] |  |  |  |  |  |  | % INHIB'N MEMBRANE IL-5 RECEPTOR [1]: 23%; % INHIB'N SOLUBLE IL-5 RECEPTOR [2]: 20%
14 | 21849 (e[5mC]*eT*eT*eT*e[5mC]*e[5mC]*eT*eT*eT*e[5mC]*e[5mC]*e[5mC]*eA*e[5mC]*eA*eT*eA*eA*eA*eT) [compound 21849] |  |  |  |  |  |  | % INHIB'N MEMBRANE IL-5 RECEPTOR [1]: 70%; % INHIB'N SOLUBLE IL-5 RECEPTOR [2]: 5%
15 | 21851 (eT*eA*eA*eA*eT*eG*eA*e[5mC]*eA*e[5mC]*eA*e[5mC]*eT*e[5mC]*eT*eG*e[5mC]*eA*eG*eA; antisense) [compound 21851] |  |  |  |  |  |  | % INHIB'N MEMBRANE IL-5 RECEPTOR [1]: 61%; % INHIB'N SOLUBLE IL-5 RECEPTOR [2]: 0%
16 | 21853 (eT*eA*eA*eA*eT*eG*eA*e[5mC]*eA*e[5mC]*e[5mC]*e[5mC]*eA*e[5mC]*eA*eT*eA*eA*eA*eT; antisense) [compound 21853] |  |  |  |  |  |  | % INHIB'N MEMBRANE IL-5 RECEPTOR [1]: 14%; % INHIB'N SOLUBLE IL-5 RECEPTOR [2]: 45%
17 | 21855 (eT*e[5mC]*eG*eA*eA*eG*eG*eT*eT*eT*e[5mC]*e[5mC]*eA*e[5mC]*eA*eT*eA*eA*eA*eT) [compound 21855] |  |  |  |  |  |  | % INHIB'N MEMBRANE IL-5 RECEPTOR [1]: 14%; % INHIB'N SOLUBLE IL-5 RECEPTOR [2]: 25%
18 | 23172 (GTTCCTGGCCCTTTCGGCTC; listed as DNA, chemistry not fully specified) [compound 23172] |  |  |  |  |  |  | bcl-xs/bcl-xl* (change from the no-oligo ratio 17.56, which reads 1) (human bcl-x mRNA [3]; A549 cells): 1.1
19 | 26067 (GGATCCAAGGCTCTAGGTGG; all 2'-MOE, all phosphorothioate, methylation of C not given here) [compound 26067] |  |  |  | 6.59 | 32 | 211 | 
20 | 26069 (antisense TCTCCTGGATCCAAGGCTCT; all 2'-MOE, all phosphorothioate, methylation of C not given here) [compound 26069] |  |  |  | 5.80 | 40 | 232 | 
21 | 26070 (antisense GTTCTCCTGGATCCAAGGCT; all 2'-MOE, all phosphorothioate, methylation of C not given here) [compound 26070] |  |  |  | 6.54 | 37 | 242 | 
22 | 26071 (antisense GCCGTTCTCCTGGATCCAAG; all 2'-MOE, all phosphorothioate, methylation of C not given here) [compound 26071] |  |  |  | 7.97 | 37 | 295 | 
23 | 26072 (antisense CCGCCGTTCTCCTGGATCCA; all 2'-MOE, all phosphorothioate, methylation of C not given here) [compound 26072] |  |  |  | 5.38 | 42 | 226 | 
24 | 26080 (antisense CTGGTTACACGACTCCAGGT; mismatch control, further chemistry not given here) [compound 26080] |  |  |  |  |  |  | ratio of bcl-xs/bcl-xl (human bcl-x mRNA [3]; Oligo Concentration 200 (unit not given)): <1; ratio of bcl-xs/bcl-xl (human bcl-x mRNA [4]; Oligo Concentration 400 (unit not given)): 1; ratio of bcl-xs/bcl-xl (human bcl-x mRNA [4]; Oligo Concentration 600 (unit not given)): 3
25 | SEQ ID NO 54: CTCTAGGTGGTCATTCAGGT; 20mer 2′-MOE phosphorothioate, no ISIS # printed; Exon 1L 652-671 (all 2'-MOE, all phosphorothioate, methylation of C not given here) |  |  |  | 7.14 | 42 | 300 | 
26 | SEQ ID NO 55: GGCTCTAGGTGGTCATTCAG; 20mer 2′-MOE phosphorothioate, no ISIS # printed; Exon 1L 654-673 (all 2'-MOE, all phosphorothioate, methylation of C not given here) |  |  |  | 6.72 | 47 | 316 | 
27 | SEQ ID NO 57: AAGGCTCTAGGTGGTCATTC; 20mer 2′-MOE phosphorothioate, no ISIS # printed; Exon 1L 656-675 (all 2'-MOE, all phosphorothioate, methylation of C not given here) |  |  |  | 7.64 | 53 | 405 | 
28 | SEQ ID NO 58: CCAAGGCTCTAGGTGGTCAT; 20mer 2′-MOE phosphorothioate, no ISIS # printed; Exon 1L 658-677 (all 2'-MOE, all phosphorothioate, methylation of C not given here) |  |  |  | 10.42 | 26 | 271 | 
